Results taken from US20250034135A1, “ANTI-APOPTOTIC PROTEIN BCL-2 INHIBITOR, PHARMACEUTICAL COMPOSITION AND USES THEREOF” (HANGZHOU HEALZEN THERAPEUTICS CO., LTD., priority 2021, published 2025).
pIC50: −log10 of the molar value.

These molecules were tested against BCL2 (Homo sapiens (Human), UniProt P10415) (assay: Molecular level activity test of anti-apoptotic protein BCL2 (HTRF, binding to Bim peptide)). Details: HTRF, binding of BCL2 to Bim peptide; read-out: BCL2 nM (inhibitory activity, IC50).
Outline: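 Compound (2% DMSO) was mixed with His-tagged recombinant BCL2 and biotinylated Bim peptide for 1 h. Detection used anti-His antibody plus streptavidin-XL665 for 4 h at room temperature, read by time-resolved fluorescence.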

Chain of BCL2 (P10415 whole entry): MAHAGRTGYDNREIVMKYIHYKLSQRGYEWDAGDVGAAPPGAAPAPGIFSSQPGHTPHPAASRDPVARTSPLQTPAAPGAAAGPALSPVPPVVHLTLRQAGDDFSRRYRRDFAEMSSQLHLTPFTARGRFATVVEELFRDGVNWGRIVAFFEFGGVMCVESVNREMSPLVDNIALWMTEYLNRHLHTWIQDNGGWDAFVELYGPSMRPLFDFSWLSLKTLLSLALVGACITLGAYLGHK

Row | pIC50 | Structure (SMILES)
1 | > 8.00 | CC(C)c1ccccc1[C@@H]1CCCN1C1CC2(CCN(c3cc(Oc4cnc5[nH]ccc5c4)c(C(=O)NS(=O)(=O)c4cc([N+](=O)[O-])c(NCC5(F)CCN(CC(C)(C)C)CC5)c5[nH]cnc45)cn3)CC2)C1 [compound 025, (S)-4-((1H-pyrrolo[2,3-b]pyrid-5-yl)oxy)-N-((7-(((4-fluoro-1-neopentylpiperid-4-yl)methyl)amino)-6-nitro-1H-benzo[d]imidazol-4-yl)sulfonyl)-6-(2-(2-(2-isopropylphenyl)pyrrolidin-1-yl)-7-azaspiro[3.5]non-7-yl) nicotinamide]
2 | > 8.00 | CC(C)c1ccccc1[C@@H]1CCCN1C1CC2(CCN(c3cc(Oc4cnc5[nH]ccc5c4)c(C(=O)NS(=O)(=O)c4cc([N+](=O)[O-])c(NCC5CCC(O)CC5)c5[nH]cnc45)cc3F)CC2)C1 (stereo partly drawn) [compound 016]
3 | > 8.00 | COc1cc(CN2CCN(C3CC4(CCN(c5ccc(C(=O)NS(=O)(=O)c6cc([N+](=O)[O-])c(NC[C@H]7CC[C@](C)(O)CC7)c7c6OCO7)c(Oc6cnc7[nH]ccc7c6)c5)CC4)C3)[C@H](c3ccccc3C(C)C)C2)cc2cc(C)oc12 [compound 180]
4 | > 8.00 | COc1ccc(CN2CCN(C3CC4(CCN(c5cc(Oc6cnc7[nH]ccc7c6)c(C(=O)NS(=O)(=O)c6cc([N+](=O)[O-])c(NC[C@H]7CC[C@](C)(O)CC7)c7[nH]cnc67)cc5F)CC4)C3)C(c3ccccc3C(C)C)C2)cc1 (stereo partly drawn) [compound 071, 2-((1H-pyrrolo[2,3-b]pyrid-5-yl)oxy)-5-fluoro-N-((7-((((1r,4r)-4-hydroxy-4-methylcyclohexyl)methyl)amino)-6-nitro-1H-benzo[d]imidazol-4-yl)sulfonyl)-4-(2-(2-(2-isopropylphenyl)-4-(4-methoxybenzyl)piperazin-1-yl)-7-azaspiro[3.5]non-7-yl)benzamide]
5 | > 8.00 | CC(C)c1ccccc1[C@@H]1CCCN1C1CC2(CCN(c3cc(Oc4cnc5[nH]ccc5c4)c(C(=O)NS(=O)(=O)c4cc([N+](=O)[O-])c(NCC5CCC(N(C)C)CC5)c5[nH]cnc45)cn3)CC2)C1 (stereo partly drawn) [compound 033, 4-((1H-pyrrolo[2,3-b]pyrid-5-yl)oxy)-N-((7-((((1S,4S)-4-(dimethylamino)cyclohexyl)methyl)amino)-6-nitro-1H-benzo[d]imidazol-4-yl)sulfonyl)-6-(2-((S)-2-(2-isopropylphenyl)pyrrolidin-1-yl)-7-azaspiro[3.5]non-7-yl) nicotinamide]
6 | > 8.00 | CC(C)c1ccccc1[C@@H]1CCCN1C1CC2(CCN(c3cc(Oc4cnc5[nH]ccc5c4)c(C(=O)NS(=O)(=O)c4cc([N+](=O)[O-])c(NCC5(F)CCN(C6CCOCC6)CC5)c5[nH]cnc45)cn3)CC2)C1 [compound 023]
7 | > 8.00 | COc1ccc(CN2CCN(C3CC4(C3)CN(c3ccc(C(=O)NS(=O)(=O)c5cc([N+](=O)[O-])c(NC[C@H]6CC[C@](C)(O)CC6)c6[nH]cnc56)c(Oc5cnc6[nH]ccc6c5)c3)C4)C(c3ccccc3C(C)C)C2)cc1 (stereo partly drawn) [compound 040, 2-((1H-pyrrolo[2,3-b]pyrid-5-yl)oxy)-N-((7-((((1r,4r)-4-hydroxy-4-methylcyclohexyl)methyl)amino)-6-nitro-1H-benzo[d]imidazol-4-yl)sulfonyl)-4-(6-(2-(2-isopropylphenyl)-4-(4-methoxybenzyl)piperazin-1-yl)-2-azaspiro[3.3]hept-2-yl)benzamide]
8 | > 8.00 | CC(C)c1ccccc1[C@@H]1CCCN1C1CC2(CCN(c3ccc(C(=O)NS(=O)(=O)c4cc([N+](=O)[O-])c(NC[C@H]5CC[C@](C)(O)CC5)c5[nH]cnc45)c(N4CCCOc5nc6[nH]ccc6cc54)c3)CC2)C1 [compound 085, 2-(3,4-dihydro-2H-pyrrolo[3′,2′:5,6]pyridino[2,3-b][1,4]oxazacyclohept-1 (7H)-yl)-N-((7-((((1r,4r)-4-hydroxy-4-methylcyclohexyl)methyl)amino)-6-nitro-1H-benzo[d]imidazol-4-yl)sulfonyl)-4-(2-((S)-2-(2-isopropylphenyl)pyrrolidin-1-yl)-7-azaspiro[3.5]non-7-yl)benzamide]
9 | > 8.00 | CC(C)c1ccccc1[C@@H]1CCCN1C1CC2(CCN(c3cc(N4CCOc5nc6[nH]ccc6cc54)c(C(=O)NS(=O)(=O)c4cc([N+](=O)[O-])c(NC[C@H]5CC[C@](C)(O)CC5)c5[nH]cnc45)cn3)CC2)C1 [compound 081, 4-(2,3-dihydropyrrolo[3′,2′:5,6]pyridino[2,3-b][1,4]oxazin-1 (6H)-yl)-N-((7-((((1r,4r)-4-hydroxy-4-methylcyclohexyl)methyl)amino)-6-nitro-1H-benzo[d]imidazol-4-yl)sulfonyl)-6-(2-((S)-2-(2-isopropylphenyl)pyrrolidin-1-yl)-7-azaspiro[3.5]non-7-yl) nicotinamide]
10 | > 8.00 | COc1ccc(CN2CCN(C3CC4(C3)CN(c3cc(Oc5cnc6[nH]ccc6c5)c(C(=O)NS(=O)(=O)c5cc([N+](=O)[O-])c(NC[C@H]6CC[C@](C)(O)CC6)c6[nH]cnc56)cn3)C4)C(c3ccccc3C(C)C)C2)cc1 (stereo partly drawn) [compound 068, 4-((1H-pyrrolo[2,3-b]pyrid-5-yl)oxy)-N-((7-((((1r,4r)-4-hydroxy-4-methylcyclohexyl)methyl)amino)-6-nitro-1H-benzo[d]imidazol-4-yl)sulfonyl)-6-(6-(2-(2-isopropylphenyl)-4-(4-methoxybenzyl)piperazin-1-yl)-2-azaspiro[3.3]hept-2-yl) nicotinamide]

More lines, now with the values behind:

Row | Structure (SMILES) | pIC50
11 | COc1ccc(CN2CCN(C3CC4(CCN(c5ccc(C(=O)NS(=O)(=O)c6cc([N+](=O)[O-])c(NC[C@H]7COCCO7)c7c6OCCO7)c(Oc6cnc7[nH]ccc7c6)c5)CC4)C3)[C@H](c3ccccc3C(C)C)C2)cc1 [compound 183, N-((8-((((S)-1,4-dioxan-2-yl)methyl)amino)-7-nitro-2,3-dihydrobenzo[b][1,4]dioxan-5-yl)sulfonyl)-2-((1H-pyrrolo[2,3-b]pyrid-5-yl)oxy)-4-(2-((R)-2-(2-isopropylphenyl)-4-(4-methoxybenzyl)piperazin-1-yl)-7-azaspiro[3.5]non-7-yl)benzamide] | > 8.00
12 | COc1ccc(CN2CCN(C3CC4(CCN(c5ccc(C(=O)NS(=O)(=O)c6cc([N+](=O)[O-])c(NCC7(F)CCOCC7)c7[nH]cnc67)c(Oc6cnc7[nH]ccc7c6)c5)CC4)C3)C(c3ccccc3C(C)C)C2)cc1 (stereo not drawn) [compound 047, 2-((1H-pyrrolo[2,3-b]pyrid-5-yl)oxy)-N-((7-(((4-fluorotetrahydro-2H-pyran-4-yl)methyl)amino)-6-nitro-1H-benzo[d]imidazol-4-yl)sulfonyl)-4-(2-(2-(2-isopropylphenyl)-4-(4-methoxybenzyl)piperazin-1-yl)-7-azaspiro[3.5]non-7-yl)benzamide] | > 8.00
13 | COc1ccc(CN2CCN(C3CC4(CCN(c5cc(Oc6cnc7[nH]ccc7c6)c(C(=O)NS(=O)(=O)c6cc([N+](=O)[O-])c(NCC7CCOCC7)c7[nH]cnc67)cn5)CC4)C3)C(c3ccccc3C(C)C)C2)cc1 (stereo not drawn) [compound 075, 4-((1H-pyrrolo[2,3-b]pyrid-5-yl)oxy)-6-(2-(2-(2-isopropylphenyl)-4-(4-methoxybenzyl)piperazin-1-yl)-7-azaspiro[3.5]non-7-yl)-N-((6-nitro-7-(((tetrahydro-2H-pyran-4-yl)methyl)amino)-1H benzo[d]imidazol-4-yl)sulfonyl) nicotinamide] | > 8.00
14 | COc1ccc(CN2CCN(C3CC4(CCN(c5cc(Oc6cnc7[nH]ccc7c6)c(C(=O)NS(=O)(=O)c6cc([N+](=O)[O-])c(NCC7(F)CCOCC7)c7c6CCO7)cc5F)CC4)C3)[C@H](c3ccccc3C(C)C)C2)cc1 [compound 112, (R)-2-((1H-pyrrolo[2,3-b]pyrid-5-yl)oxy)-5-fluoro-N-((7-(((4-fluorotetrahydro-2H-pyran-4-yl)methyl)amino)-6-nitro-2,3-dihydrobenzofuran-4-yl)sulfonyl)-4-(2-(2-(2-isopropylphenyl)-4-(4-methoxybenzyl)piperazin-1-yl)-7-azaspiro[3.5]non-7-yl)benzamide] | > 8.00
15 | CC(C)c1ccccc1[C@@H]1CN(Cc2c(F)cccc2F)CCN1C1CC2(CCN(c3ccc(C(=O)NS(=O)(=O)c4cc([N+](=O)[O-])c(NCC5(F)CCOCC5)c5c4OCO5)c(Oc4cnc5[nH]ccc5c4)c3)CC2)C1 [compound 170, (R)-2-((1H-pyrrolo[2,3-b]pyrid-5-yl)oxy)-4-(2-(4-(2,6-difluorobenzyl)-2-(2-isopropylphenyl)piperazin-1-yl)-7-azaspiro[3.5]non-7-yl)-N-((7-(((4-fluorotetrahydro-2H-pyran-4-yl)methyl)amino)-6-nitrobenzo[d][1,3]dioxocyclopent-4-yl)sulfonyl)benzamide] | > 8.00
16 | COc1ccc(CN2CCN(C3CC4(CCN(c5cc(Oc6cnc7[nH]ccc7c6)c(C(=O)NS(=O)(=O)c6cc([N+](=O)[O-])c(NCC7(F)CCOCC7)c7c6OCO7)cc5F)CC4)C3)[C@H](c3ccccc3C(C)C)C2)cn1 [compound 126] | > 8.00
17 | CC(C)c1ccccc1[C@@H]1CCCN1C1CC2(CCN(c3cc(Oc4cnc5[nH]ccc5c4)c(C(=O)NS(=O)(=O)c4cc([N+](=O)[O-])c(NC[C@H]5COCCO5)c5c4OCO5)cc3F)CC2)C1 [compound 157, N-((7-((((S)-1,4-dioxan-2-yl)methyl)amino)-6-nitrobenzo[d][1,3]dioxocyclopent-4-yl)sulfonyl)-2-((1H-pyrrolo[2,3-b]pyrid-5-yl)oxy)-5-fluoro-4-(2-((S)-2-(2-isopropylphenyl)pyrrolidin-1-yl)-7-azaspiro[3.5]non-7-yl)benzamide] | > 8.00
18 | COc1ccc(CN2CCN(C3CC4(C3)CN(c3cc(Oc5cnc6[nH]ccc6c5)c(C(=O)NS(=O)(=O)c5ccc(NC[C@H]6CC[C@](C)(O)CC6)c([N+](=O)[O-])c5)cc3F)C4)C(c3ccccc3C(C)C)C2)cc1 (stereo partly drawn) [compound 056, 2-((1H-pyrrolo[2,3-b]pyrid-5-yl)oxy)-5-fluoro-N-((4-((((1r,4r)-4-hydroxy-4-methylcyclohexyl)methyl)amino)-3-nitrophenyl)sulfonyl)-4-(6-(2-(2-isopropylphenyl)-4-(4-methoxybenzyl)piperazin-1-yl)-2-azaspiro[3.3]hept-2-yl)benzamide] | > 8.00
